{
  "source": "patent US20210041441A1",
  "about": "“DISCOVERY OF NOVEL MOLECULES AND REPURPOSED DRUGS FOR RAS FAMILY GTPases” (UNM Rainforest Innovations, priority 2018, published 2021)",
  "tested_on": "Ras family GTPases (KRas WT, G12v, G13d, G12a, G12c, G12d, Q61H, Q61L, Q61R; HRas WT, HRas G12v; CDC42 WT, CDC42 L61; Rac1 WT, Rac1 L61)",
  "assay": "Multiplex flow cytometry Bodipy FL-GTP binding, compound screen and dose response",
  "details": "for activity or affinity relative to other compounds / selectivity among GTPases (RAS vs non-RAS, individual proteins): multiplex dose response; for class of modulation of Bodipy-GTP binding to Ras family GTPases (pan activator, pan inhibitor, selective inhibitor, mixed activity modulator): multiplex, 10 nM Bodipy FL-GTP, compound 100-0.015 μM, normalized to DMSO",
  "note": "“Also recorded” adds a separate entry of the source. Where a name gives a salt, the structure may show the parent alone.",
  "data": [
    {"compound": "COc1ccc2cc([C@@H](C)C(=O)[O-])ccc2c1.[Na+]", "note": "[(R)-Naproxen sodium salt]", "values": [
      {"measurement": "activity or affinity relative to other compounds", "value": "greater activity than did the naproxen sample"},
      {"measurement": "class of modulation of Bodipy-GTP binding to Ras family GTPases (pan activator, pan inhibitor, selective inhibitor, mixed activity modulator)", "setting": "listed as (R)-naproxen sodium salt, sodium salt", "value": "Pan activators"},
      {"measurement": "class of modulation of Bodipy-GTP binding to Ras family GTPases (pan activator, pan inhibitor, selective inhibitor, mixed activity modulator)", "setting": "sodium salt", "value": "pan activators"}
    ]},
    {"compound": "CC1(C)CCC2=C(O1)c1ccccc1C(=O)C2=O", "note": "[Beta Lapachone]", "values": [
      {"measurement": "selectivity among GTPases (RAS vs non-RAS, individual proteins)", "value": "RAS activator/non-RAS inhibitor"},
      {"measurement": "class of modulation of Bodipy-GTP binding to Ras family GTPases (pan activator, pan inhibitor, selective inhibitor, mixed activity modulator)", "value": "mixed activity modulators"},
      {"measurement": "class of modulation of Bodipy-GTP binding to Ras family GTPases (pan activator, pan inhibitor, selective inhibitor, mixed activity modulator)", "setting": "listed as B-lapachone", "value": "mixed activity"},
      {"measurement": "class of modulation of Bodipy-GTP binding to Ras family GTPases (pan activator, pan inhibitor, selective inhibitor, mixed activity modulator)", "setting": "listed as Beta-lapachone", "value": "modulators with mixed activity"}
    ]},
    {"compound": "CCN(CC)CCN(Cc1ccc(-c2ccc(C(F)(F)F)cc2)cc1)C(=O)Cn1c(SCc2ccc(F)cc2)nc(=O)c2c1CCC2", "note": "[Darapladib]", "values": [
      {"measurement": "class of modulation of Bodipy-GTP binding to Ras family GTPases (pan activator, pan inhibitor, selective inhibitor, mixed activity modulator)", "value": "mixed activity modulators"},
      {"measurement": "class of modulation of Bodipy-GTP binding to Ras family GTPases (pan activator, pan inhibitor, selective inhibitor, mixed activity modulator)", "setting": "listed as darapladib", "value": "modulators with mixed activity"}
    ]},
    {"compound": "COc1cc(C)c(C(=O)Oc2cc(C)c(C(=O)O)c(O)c2C)c(OC)c1C", "note": "[Diffractaic acid]", "values": [
      {"measurement": "class of modulation of Bodipy-GTP binding to Ras family GTPases (pan activator, pan inhibitor, selective inhibitor, mixed activity modulator)", "value": "pan inhibitors"},
      {"measurement": "class of modulation of Bodipy-GTP binding to Ras family GTPases (pan activator, pan inhibitor, selective inhibitor, mixed activity modulator)", "setting": "listed as Diffractaic Acid", "value": "Pan inhibitors"}
    ]},
    {"compound": "COc1ccc(C(=O)c2ccccc2O)c(O)c1", "note": "[Dioxybenzone]", "values": [
      {"measurement": "class of modulation of Bodipy-GTP binding to Ras family GTPases (pan activator, pan inhibitor, selective inhibitor, mixed activity modulator)", "value": "pan activators"},
      {"measurement": "class of modulation of Bodipy-GTP binding to Ras family GTPases (pan activator, pan inhibitor, selective inhibitor, mixed activity modulator)", "setting": "listed as dioxybenzone", "value": "activators"}
    ]},
    {"compound": "O=c1c(O)c(-c2ccc(O)c(O)c2)oc2cc(O)ccc12", "note": "[Fisetin]", "values": [
      {"measurement": "class of modulation of Bodipy-GTP binding to Ras family GTPases (pan activator, pan inhibitor, selective inhibitor, mixed activity modulator)", "value": "pan inhibitors"}
    ]},
    {"compound": "O=C(O)c1ccccc1Nc1cccc(C(F)(F)F)c1", "note": "[Flufenamic Acid]", "values": [
      {"measurement": "class of modulation of Bodipy-GTP binding to Ras family GTPases (pan activator, pan inhibitor, selective inhibitor, mixed activity modulator)", "value": "pan activators"},
      {"measurement": "class of modulation of Bodipy-GTP binding to Ras family GTPases (pan activator, pan inhibitor, selective inhibitor, mixed activity modulator)", "setting": "listed as fufenamic acid", "value": "Pan activators"}
    ]},
    {"compound": "CC(C(=O)O)c1ccc(-c2ccccc2)c(F)c1", "note": "(centres unmarked) [Flurbiprofen]", "values": [
      {"measurement": "class of modulation of Bodipy-GTP binding to Ras family GTPases (pan activator, pan inhibitor, selective inhibitor, mixed activity modulator)", "value": "pan activators"},
      {"measurement": "class of modulation of Bodipy-GTP binding to Ras family GTPases (pan activator, pan inhibitor, selective inhibitor, mixed activity modulator)", "setting": "listed as fluribuprofen", "value": "Pan activators"}
    ]},
    {"compound": "Nc1nc2ncc(CNc3ccc(C(=O)N[C@@H](CCC(=O)O)C(=O)O)cc3)nc2c(=O)[nH]1", "note": "[Folic acid]", "values": [
      {"measurement": "class of modulation of Bodipy-GTP binding to Ras family GTPases (pan activator, pan inhibitor, selective inhibitor, mixed activity modulator)", "value": "pan inhibitors"}
    ]},
    {"compound": "CN(C)CCCn1cc(C2=C(c3c[nH]c4ccccc34)C(=O)NC2=O)c2ccccc21", "note": "[GF109203X]", "values": [
      {"measurement": "selectivity among GTPases (RAS vs non-RAS, individual proteins)", "value": "selective activator non-RAS"},
      {"measurement": "class of modulation of Bodipy-GTP binding to Ras family GTPases (pan activator, pan inhibitor, selective inhibitor, mixed activity modulator)", "value": "modulators with mixed activity"}
    ]},
    {"compound": "O=C(NCCS(=O)(=O)c1ccc(C(F)(F)F)cn1)c1ccc(Cl)cc1", "note": "[GSK 3787]", "values": [
      {"measurement": "class of modulation of Bodipy-GTP binding to Ras family GTPases (pan activator, pan inhibitor, selective inhibitor, mixed activity modulator)", "value": "pan inhibitors"},
      {"measurement": "class of modulation of Bodipy-GTP binding to Ras family GTPases (pan activator, pan inhibitor, selective inhibitor, mixed activity modulator)", "setting": "listed as GSK3787", "value": "Pan inhibitors"}
    ]},
    {"compound": "Oc1ccc2ccccc2c1SSc1c(O)ccc2ccccc12", "note": "[IPA 3]", "values": [
      {"measurement": "class of modulation of Bodipy-GTP binding to Ras family GTPases (pan activator, pan inhibitor, selective inhibitor, mixed activity modulator)", "value": "pan inhibitors"}
    ]},
    {"compound": "CCC(Cc1c(I)cc(I)c(N)c1I)C(=O)O", "note": "(centres unmarked) [Iopanic acid]", "values": [
      {"measurement": "class of modulation of Bodipy-GTP binding to Ras family GTPases (pan activator, pan inhibitor, selective inhibitor, mixed activity modulator)", "value": "pan activators"},
      {"measurement": "class of modulation of Bodipy-GTP binding to Ras family GTPases (pan activator, pan inhibitor, selective inhibitor, mixed activity modulator)", "setting": "listed as iopanic acid", "value": "activators"}
    ]},
    {"compound": "O=C1c2ccccc2S(=O)(=O)N1CCCCN1CCN(c2ncccn2)CC1", "note": "[Ipsapirone]", "values": [
      {"measurement": "class of modulation of Bodipy-GTP binding to Ras family GTPases (pan activator, pan inhibitor, selective inhibitor, mixed activity modulator)", "value": "mixed activity modulators"},
      {"measurement": "class of modulation of Bodipy-GTP binding to Ras family GTPases (pan activator, pan inhibitor, selective inhibitor, mixed activity modulator)", "setting": "listed as ipsapirone", "value": "modulators with mixed activity"}
    ]},
    {"compound": "Cc1ccc(Cl)c(Nc2ccccc2C(=O)O)c1Cl", "note": "[Meclofenamic acid sodium salt monohydrate]", "values": [
      {"measurement": "class of modulation of Bodipy-GTP binding to Ras family GTPases (pan activator, pan inhibitor, selective inhibitor, mixed activity modulator)", "setting": "listed as meclofenamic acid sodium salt monohydrate, sodium salt monohydrate", "value": "Pan activators"},
      {"measurement": "class of modulation of Bodipy-GTP binding to Ras family GTPases (pan activator, pan inhibitor, selective inhibitor, mixed activity modulator)", "setting": "sodium salt monohydrate", "value": "pan activators"}
    ]},
    {"compound": "Cc1cccc(Nc2ccccc2C(=O)O)c1C", "note": "[Mefenamic Acid]", "values": [
      {"measurement": "class of modulation of Bodipy-GTP binding to Ras family GTPases (pan activator, pan inhibitor, selective inhibitor, mixed activity modulator)", "value": "pan activators"},
      {"measurement": "class of modulation of Bodipy-GTP binding to Ras family GTPases (pan activator, pan inhibitor, selective inhibitor, mixed activity modulator)", "setting": "listed as mefenamic acid", "value": "Pan activators"}
    ]},
    {"compound": "CC1=CC(=O)c2ccccc2C1=O", "note": "[Menindione]", "values": [
      {"measurement": "class of modulation of Bodipy-GTP binding to Ras family GTPases (pan activator, pan inhibitor, selective inhibitor, mixed activity modulator)", "value": "PanActivators"}
    ]},
    {"compound": "COc1ccc2cc([C@H](C)C(=O)O)ccc2c1", "note": "[Naproxen]", "values": [
      {"measurement": "class of modulation of Bodipy-GTP binding to Ras family GTPases (pan activator, pan inhibitor, selective inhibitor, mixed activity modulator)", "value": "pan activators"},
      {"measurement": "class of modulation of Bodipy-GTP binding to Ras family GTPases (pan activator, pan inhibitor, selective inhibitor, mixed activity modulator)", "setting": "listed as naproxen", "value": "Pan activators"}
    ]},
    {"compound": "Cc1cc(I)ccc1Nc1c(C(=O)NOCC2CC2)cc(F)c(F)c1F", "note": "[PD 198306]", "values": [
      {"measurement": "class of modulation of Bodipy-GTP binding to Ras family GTPases (pan activator, pan inhibitor, selective inhibitor, mixed activity modulator)", "value": "mixed activity modulators"},
      {"measurement": "class of modulation of Bodipy-GTP binding to Ras family GTPases (pan activator, pan inhibitor, selective inhibitor, mixed activity modulator)", "setting": "listed as PD198306", "value": "mixed activity with mostly activation, but some inhibition as well; also recorded: modulators with mixed activity"}
    ]},
    {"compound": "N#CSc1cc(SC#N)c(N)nc1N", "note": "[PR-619]", "values": [
      {"measurement": "class of modulation of Bodipy-GTP binding to Ras family GTPases (pan activator, pan inhibitor, selective inhibitor, mixed activity modulator)", "value": "pan inhibitors"}
    ]},
    {"compound": "CN1CCC(=C2c3ccccc3Sc3ccccc32)CC1", "note": "[Pimethixene Maleate]", "values": [
      {"measurement": "class of modulation of Bodipy-GTP binding to Ras family GTPases (pan activator, pan inhibitor, selective inhibitor, mixed activity modulator)", "value": "mixed activity modulators"},
      {"measurement": "class of modulation of Bodipy-GTP binding to Ras family GTPases (pan activator, pan inhibitor, selective inhibitor, mixed activity modulator)", "setting": "listed as pimethixene maleate", "value": "modulators with mixed activity"},
      {"measurement": "class of modulation of Bodipy-GTP binding to Ras family GTPases (pan activator, pan inhibitor, selective inhibitor, mixed activity modulator)", "setting": "listed as pimethixine maleate", "value": "mixed activity"}
    ]},
    {"compound": "CC(C)Cc1ccc(C(C)C(=O)O)cc1", "note": "(stereo not drawn) [S-(+)-Ibuprofen]", "values": [
      {"measurement": "activity or affinity relative to other compounds", "value": "lower affinity than the mixture"}
    ]},
    {"compound": "O=C(Oc1ccccc1C(=O)O)c1ccccc1O", "note": "[Salsalate]", "values": [
      {"measurement": "class of modulation of Bodipy-GTP binding to Ras family GTPases (pan activator, pan inhibitor, selective inhibitor, mixed activity modulator)", "value": "pan activators"},
      {"measurement": "class of modulation of Bodipy-GTP binding to Ras family GTPases (pan activator, pan inhibitor, selective inhibitor, mixed activity modulator)", "setting": "listed as salsalate", "value": "Pan activators"}
    ]},
    {"compound": "Cc1c(Cl)cccc1Nc1ccccc1C(=O)O", "note": "[Tolfenamic acid]", "values": [
      {"measurement": "class of modulation of Bodipy-GTP binding to Ras family GTPases (pan activator, pan inhibitor, selective inhibitor, mixed activity modulator)", "value": "pan activators"},
      {"measurement": "class of modulation of Bodipy-GTP binding to Ras family GTPases (pan activator, pan inhibitor, selective inhibitor, mixed activity modulator)", "setting": "listed as tolfenamic acid", "value": "Pan activators"}
    ]},
    {"compound": "A-7 hydrochloride", "values": [
      {"measurement": "class of modulation of Bodipy-GTP binding to Ras family GTPases (pan activator, pan inhibitor, selective inhibitor, mixed activity modulator)", "value": "pan activators"}
    ]}
  ]
}
